Target: T1, Protein Rev [8-24] (Human immunodeficiency virus 1, UniProt P05866)
T1 construct: 8-24
Assay: inhibitors of Rev protein–RRE RNA complex – biochemical, protein-RNA interaction, dose response (AID 842)

In the case of CC[n+]1c(CC=Nc2ccccc2)oc2ccccc21 [3-Ethyl-2-(2-phenylamino-vinyl)-benzooxazol-3-ium], the IC50 is reported as 5.66 µM.

Cc1[nH]n(-c2ccccc2)c(=O)c1N=Nc1ccc(N)cc1 [4-(4-aminophenyl)azo-5-methyl-2-phenyl-4H-pyrazol-3-one] was tested, and the IC50 was greater than 79.4 µM.
